Reference: publication PMC9995496, “A screen for MeCP2-TBL1 interaction inhibitors using a luminescence-based assay” (Scientific Reports, 2023)

The molecules below were run on PRKACA-PRKAR2A interaction (SmBiT-PRKACA / LgBiT-PRKAR2A), protein kinase A. Conditions: 0.5 h, 20 µM; inhibitor.
Set-up: NanoLuc complementation counter-screen in cell extract, PRKACA with PRKAR2A, loss of luminescence, detects NanoLuc interference
For CC(=O)Nc1ccc(OC[C@](C)(O)C(=O)Nc2ccc([N+](=O)[O-])c(C(F)(F)F)c2)cc1 [UM0141445:01, Andarine], the “Inh (PKA)” value was 7.113%.
With CN1CCCCC1Cn1cc(C(=O)c2cc([N+](=O)[O-])ccc2I)c2ccccc21 (stereo not shown) [UM0141913:01, AM1241] the “Inh (PKA)” value was 12.3%.
CN(Cc1cccc(-c2ccncc2)c1)C(=O)Oc1ccc(-c2ccc(C(N)=O)cc2)cc1 [UM0142148:01, WWL 70] was tested, and the “Inh (PKA)” value was 11.8%.

Same assay, conditions: counter-screen for NanoLuc interference, 0.5 h, 20 µM, inhibitor, Inh (PKA)
In the case of CNC(=O)c1cc(Oc2ccc(NC(=O)Nc3ccc(Cl)c(C(F)(F)F)c3)cc2)ccn1 [UM0127950:06, Sorafenib], the “Inh (PKA)” value is reported as 5.105%.

Same assay, conditions: counter-screen for NanoLuc interference; 0.5 h, 20 µM; inhibitor
Cc1cc(C)c(Nc2ccnc(Nc3ccc(C#N)cc3)n2)c(C)c1 [UM0142086:01, Dapivirine (TMC120)] was tested, and the “Inh (PKA)” value was 39.35%.
With C[C@]12C=CC(=O)N[C@@H]1CC[C@@H]1[C@@H]2CC[C@]2(C)[C@@H](C(=O)Nc3cc(C(F)(F)F)ccc3C(F)(F)F)CC[C@@H]12 [UM0141408:01, Dutasteride] the “Inh (PKA)” value was 7.996%.
Cc1cc(C)c2c(c1)[C@@H](N(Cc1cc(C(F)(F)F)cc(C(F)(F)F)c1)c1nnn(C)n1)CCCN2C[C@H]1CC[C@H](C(=O)O)CC1 [UM0141818:01, Evacetrapib (LY2484595)] was tested, and the “Inh (PKA)” value was 12.81%.
In the case of O=C(NCCCNc1nc(Nc2cccc(NC(=O)N3CCCC3)c2)ncc1I)c1cccs1 [UM0141957:01, BX795], the “Inh (PKA)” value is reported as 37.99%.
In the case of CC[C@@H]1/C=C(\C)C[C@H](C)C[C@H](OC)[C@H]2O[C@@](O)(C(=O)C(=O)N3CCCC[C@H]3C(=O)O[C@H](/C(C)=C/[C@@H]3CC[C@H](Cl)[C@H](OC)C3)[C@H](C)[C@@H](O)CC1=O)[C@H](C)C[C@@H]2OC [UM0142376:01, Pimecrolimus], the “Inh (PKA)” value is reported as 0.5953%.
In the case of Cc1nc(Nc2cnn(C3CCNCC3)c2)nc2c1N(C)C(=O)c1cc3ccccc3cc1N2C [UM0142147:01, HTH-01-015], the “Inh (PKA)” value is reported as 10.88%.
OC[C@H]1O[C@@H](c2ccc(Cl)c(Cc3ccc(O[C@H]4CCOC4)cc3)c2)[C@H](O)[C@@H](O)[C@@H]1O [UM0141860:01, Empagliflozin (BI 10773)] was tested, and the “Inh (PKA)” value was 6.685%.
In the case of CC1=C(CC(=O)O)c2cc(F)ccc2/C1=C\c1ccc([S+](C)[O-])cc1 (stereo not shown) [UM0134349:02, Sulindac], the “Inh (PKA)” value is reported as 3.185%.
With CC(C)(C)c1cnc(CSc2cnc(NC(=O)C3CCNCC3)s2)o1 [UM0141438:01, SNS-032 (BMS-387032)] the “Inh (PKA)” value was 4.184%.
For O=CC[C@@H](O)[C@H](O)[C@H](O)CO [UM0142158:01, 2-Deoxy-D-glucose], the “Inh (PKA)” value was 1.529%.
With CCc1cc(Nc2nccc(-c3c(-c4ccc(OC)c(C(=O)Nc5c(F)cccc5F)c4)nc4ccccn34)n2)c(OC)cc1N1CCC(N2CCN(S(C)(=O)=O)CC2)CC1 [UM0141389:01, GSK1904529A] the “Inh (PKA)” value was 3.167%.
With COc1cc2c(cc1OC)CN(CCc1ccc(NC(=O)c3cccc4c(=O)c5cccc(OC)c5[nH]c34)cc1)CC2 [UM0141547:01, Elacridar] the “Inh (PKA)” value was 22.37%.
For O=C(Nc1cc(C(F)(F)F)cc(C(F)(F)F)c1)c1cc(Cl)ccc1O [UM0142315:01, IMD 0354], the “Inh (PKA)” value was 90.14%.
With COc1cc2c(cc1Cc1cccc(Cl)c1F)c(=O)c(C(=O)O)cn2[C@H](CO)C(C)C [UM0141691:01, Elvitegravir (GS-9137)] the “Inh (PKA)” value was 4.883%.
CC(=O)N[C@@H](CS)C(=O)O [UM0119535:03, Acetylcysteine] was tested, and the “Inh (PKA)” value was 1.097%.
With O=C(CCCCCN1C(=O)c2cccc3cccc(c23)C1=O)NO [UM0128546:02, Scriptaid] the “Inh (PKA)” value was 3.14%.
With O=S(=O)(CC1CS1)c1ccc(Oc2ccccc2)cc1 (stereo not shown) [UM0142583:01, SB-3CT] the “Inh (PKA)” value was 17.13%.
In the case of CS(=O)(=O)c1cccc(CNc2nc(Nc3ccc4c(c3)CCC(=O)N4)ncc2C(F)(F)F)c1 [UM0142290:01, PF-573228], the “Inh (PKA)” value is reported as 25.03%.
In the case of CC(C)(C)c1cc(C=C(C#N)C#N)cc(C(C)(C)C)c1O [UM0120315:03, Tyrphostin 9], the “Inh (PKA)” value is reported as 80.34%.
In the case of CCCCCCCCCCCC1=C(O)C(=O)C=C(O)C1=O [UM0133662:02, Embelin], the “Inh (PKA)” value is reported as 15.52%.
In the case of CCCC(=O)Nc1cccc(NC(=O)c2ccccc2Br)c1 [UM0141963:01, ML161], the “Inh (PKA)” value is reported as 3.147%.
